Experiments:
[1] = Fading suppressing effect, UV Fade Meter irradiation (Experiment Example 5); conditions: pH 3.1, final MY 0.003%, γ-CD 0.01%, EMIQ […]
Description: (§1) Specifically, a colorant-containing acidic drink of the formulation below was prepared. Then, a 3% MY preparation (product name: SanMelin**Y-AF*) and a MY/γ-CD inclusion product (MY: γ-CD=1:1.2) (containing 3% myricitrin) prepared in Example 2 were added to the drink to a final MY concentration of 0.003% or to a final γ-CD (Wacker Chemical) concentration of 0.01%.
(§2) The drinks were irradiated with a UV Fade Meter (UV Long-Life Fade Meter FAL-3, Suga Test Instruments Co., Ltd.) or a fluorescent light (BIOTRON LH 300, NK System) for the durations presented in Tables 6 and 7. Absorbance was measured before and after the irradiation, and the percentage of remaining color (%) after the irradiation was calculated. Further, as a control test, a colorant-containing acidic drink was irradiated with the UV Fade Meter or fluorescent light as above without adding anything (no addition), and the percentage of remaining color (%) after the irradiation was calculated.

[2] = Fading suppressing effect, fluorescent light irradiation (Experiment Example 5); conditions: pH 3.1, final MY 0.003%, γ-CD 0.01%, EMIQ […]
Description: as §1, §2

[3] = Flavor deterioration suppressing effect, sensory evaluation of drinks after light or heat stress test (Experiment Example 6); parameters: key: 1 = no-addition blank drink, 5 = drink before the test; conditions: added 0.1% (γ-CD 0.01%)
Description: Various drinks mixed with the MY or MY composition were subjected to a light or heat stress test (accelerated test) to evaluate the flavor deterioration suppressing effect of the MY or MY composition.
Specifically, eight drinks were prepared in the formulations 1 to 8 below. Then, a 3% MY preparation (product name: SanMelin**Y-AF*), a MY/γ-CD inclusion product preparation (MY: γ-CD=1:1.2) (containing 3% MY) prepared in Example 2, a MY/γ-CD inclusion product preparation (MY: γ-CD=1:1.2) (containing 6% MY) prepared in Example 3, and γ-CD (Wacker Chemical) were added thereto in the final concentrations shown in FIG. 10.
The drinks prepared as above were tested under the severity conditions presented in Table 10, and changes in drink flavor after the test were examined by six panelists in a sensory evaluation. Evaluations were made according to the following criteria on a scale of 1 (a drink with no addition (blank)) to 5 (each drink before the test).
Table 10 presents mean values of the scored points evaluated by the six panelists.

For `OC[C@H]1O[C@@H]2O[C@H]3[C@H](O)[C@@H](O)[C@@H](O[C@H]4[C@H](O)[C@@H](O)[C@@H](O[C@H]5[C@H](O)[C@@H](O)[C@@H](O[C@H]6[C@H](O)[C@@H](O)[C@@H](O[C@H]7[C@H](O)[C@@H](O)[C@@H](O[C@H]8[C@H](O)[C@@H](O)[C@@H](O[C@H]9[C@H](O)[C@@H](O)[C@@H](O[C@H]1[C@H](O)[C@H]2O)O[C@@H]9CO)O[C@@H]8CO)O[C@@H]7CO)O[C@@H]6CO)O[C@@H]5CO)O[C@@H]4CO)O[C@@H]3CO` [γ-CD, γ-cyclodextrin], the “percentage of remaining color (%)” value ([1]; Cochineal colorant 0.05%, UV Fade Meter 6 H) was 64.3%, the “percentage of remaining color (%)” value ([1]; Elderberry colorant 0.05%, UV Fade Meter 2 H) was 68.5% and the “percentage of remaining color (%)” value ([1]; Gardenia blue colorant 0.05%, UV Fade Meter 19 H) was 68.6%. For the same compound, the “percentage of remaining color (%)” value ([1]; Grape juice colorant 0.1%, UV Fade Meter 2 H) was 75.0%, the “percentage of remaining color (%)” value ([1]; Monascus colorant, UV Fade Meter 3 H) was 30.2% and the “percentage of remaining color (%)” value ([1]; Paprika colorant 0.05%, UV Fade Meter 3 H) was 50.3%. For the same compound, the “percentage of remaining color (%)” value ([1]; Purple corn colorant 0.05%, UV Fade Meter 4 H) was 72.8%, the “percentage of remaining color (%)” value ([1]; Purple sweet potato colorant 0.05%, UV Fade Meter 7 H) was 46.5% and the “percentage of remaining color (%)” value ([1]; Red cabbage colorant 0.05%, UV Fade Meter 10 H) was 53.9%. The “percentage of remaining color (%)” value ([1]; Safflower yellow colorant 0.05%, UV Fade Meter 4 H) was 48.6%, the “percentage of remaining color (%)” value ([1]; β-carotene 0.05%, UV Fade Meter 17 H) was 68.5% and the “percentage of remaining color (%)” value ([2]; Cochineal colorant 0.05%, fluorescent light 1 D) was 64.2%. For the same compound, the “percentage of remaining color (%)” value ([2]; Elderberry colorant 0.05%, fluorescent light 6 D) was 63.8%, the “percentage of remaining color (%)” value ([2]; Gardenia blue colorant 0.05%, fluorescent light (time not given)) was 58.4% and the “percentage of remaining color (%)” value ([2]; Monascus colorant, fluorescent light 4 D) was 38.7%. The “percentage of remaining color (%)” value ([2]; Paprika colorant 0.05%, fluorescent light 6 D) was 71.2%, the “percentage of remaining color (%)” value ([2]; Purple corn colorant 0.05%, fluorescent light 2 D) was 65.5% and the “percentage of remaining color (%)” value ([2]; Purple sweet potato colorant 0.05%, fluorescent light 6 D) was 80.4%. The “percentage of remaining color (%)” value ([2]; Red cabbage colorant 0.05%, fluorescent light 4 D) was 62.8%, the “percentage of remaining color (%)” value ([2]; Safflower yellow colorant 0.05%, fluorescent light 6 D) was 68.1% and the “percentage of remaining color (%)” value ([2]; β-carotene 0.05%, fluorescent light 1 D) was 67.4%. The “flavor change score, mean of six panelists” value (from here on “flavor change score, mean”) ([3]; Coffee, Fluorescent light (20000 lx, 16 hr, 15° C.), scale 1 to 5) was 2.4, the “flavor change score, mean” value ([3]; Grape drink, Fluorescent light (20000 lx, 15 hr, 15° C.), scale 1 (blank) to 5 (before test)) was 1.6 and the “flavor change score, mean” value ([3]; Grapefruit drink (20% fruit juice), Fade Meter ([…]), scale 1 to 5) was 2.2. The “flavor change score, mean” value ([3]; Grapefruit drink (20% fruit juice), Fluorescent light (20000 lx, 21 hr, 10° C.), scale 1 to 5) was 2.0, the “flavor change score, mean” value ([3]; Grapefruit drink (20% fruit juice), Heat (55° C., 64 hr), scale 1 to 5) was 2.8 and the “flavor change score, mean” value ([3]; Grapefruit drink (100% fruit juice), Fluorescent light (20000 lx, 18 hr, 15° C.), scale 1 to 5) was 2.1. For the same compound, the “flavor change score, mean” value ([3]; Lemon drink, Fluorescent light (20000 lx, 21 hr, 10° C.), scale 1 to 5) was 2.2, the “flavor change score, mean” value ([3]; Milk tea, Fluorescent light (20000 lx, 18 hr, 15° C.), scale 1 to 5) was 2.3 and the “flavor change score, mean” value ([3]; Orange drink (20% fruit juice), Fluorescent light (20000 lx, 18 hr, 15° C.), scale 1 to 5) was 2.3. The “flavor change score, mean” value ([3]; Sour milk beverage, Fluorescent light (20000 lx, 18 hr, 15° C.), scale 1 to 5) was 2.7.

Reference: patent publication US20120015090A1, “READILY WATER-SOLUBLE MYRICITRIN COMPOSITION” (SAN-EI GEN F.F.I., INC., priority 2009, published 2012)
